From ChEMBL document CHEMBL1150476, “Peptoid mimics of a C2-symmetric inhibitor of the HIV-1 protease” (Bioorg Med Chem Lett, 1994)

Key:
[1] = biological target: Human immunodeficiency virus type 1 protease (Human immunodeficiency virus 1) (UniProt Q72874); experiment: Concentration required for inhibitory activity against HIV-1 protease at concentration of 10e-5 M by using HKARVL-(pNO2)F-EAnLSNH2 as substrate; No significant activity
[2] = biological target: Human immunodeficiency virus type 1 protease (Human immunodeficiency virus 1) (UniProt Q72874); experiment: Concentration required for inhibitory activity against HIV-1 protease at concentration of 10e-5 M by using SQN-(pNO2)F-PIV as substrate; No significant activity
[3] = biological target: Human immunodeficiency virus type 1 protease (Human immunodeficiency virus 1) (UniProt Q72874); experiment: Concentration required for inhibitory activity against HIV-1 protease at concentration of 10e-5 M by using TLNFPIS AMC as substrate; No significant activity

Measured: Activity

CCCCCCCC/C=C\CCCCCCCC(=O)N(CC(=O)N(CC(=O)N(Cc1ccccc1)CC(O)CN(Cc1ccccc1)C(=O)CN(C(=O)CN(C(=O)CCCCCCC/C=C\CCCCCCCC)C(C)C)C(C)C)C(C)C)C(C)C
inactive: [1] No significant activity | [2] No significant activity | [3] No significant activity

CC(C)N(CC(=O)N(Cc1ccccc1)CC(O)CN(Cc1ccccc1)C(=O)CN(C(=O)CN(C(=O)OC(C)(C)C)C(C)C)C(C)C)C(=O)CN(C(=O)OC(C)(C)C)C(C)C
inactive: [1] No significant activity | [2] No significant activity | [3] No significant activity

CC(C)NCC(=O)N(CC(=O)N(Cc1ccccc1)CC(O)CN(Cc1ccccc1)C(=O)CN(C(=O)CNC(C)C)C(C)C)C(C)C
inactive: [1] No significant activity | [2] No significant activity | [3] No significant activity

CC(C)N(CC(=O)N(Cc1ccccc1)CC(O)CN(Cc1ccccc1)C(=O)CN(C(=O)CN(C(=O)CCC(=O)O)C(C)C)C(C)C)C(=O)CN(C(=O)CCC(=O)O)C(C)C
inactive: [1] No significant activity | [2] No significant activity | [3] No significant activity

CC(C)N(CC(=O)N(Cc1ccccc1)CC(O)CN(Cc1ccccc1)C(=O)CN(C(=O)CN(C(=O)OCc1ccccc1)C(C)C)C(C)C)C(=O)CN(C(=O)OCc1ccccc1)C(C)C
inactive: [1] No significant activity | [2] No significant activity | [3] No significant activity
